Experimental data reported in ChEMBL document CHEMBL5108013, “Crescent-shaped meta-substituted benzene derivatives as a new class of non-nucleoside ribonuclease A inhibitors” (Bioorg Med Chem, 2022).
Activity calls are given as the source filed them. The calls are words filed in the database; no cut-off is given here.

Legend:
[1] = biological target: T1, Ribonuclease pancreatic (Bos taurus) (UniProt P61823); experiment: Inhibition of bovine pancreatic RNase A assessed as increase in RNA band intensity using RNA as substrate incubated for 3 hrs followed by RNA addition for 30 mins by ethidium bromide staining based agarose gel electrophoresis; conditions: time 210.0 min
T1 sequence (whole entry): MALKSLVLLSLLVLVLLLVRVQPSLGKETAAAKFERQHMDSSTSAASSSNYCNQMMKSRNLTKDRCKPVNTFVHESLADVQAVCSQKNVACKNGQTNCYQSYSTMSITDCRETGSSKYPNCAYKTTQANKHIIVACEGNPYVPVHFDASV

Ribonuclease pancreatic [2] = biological target: T2, Ribonuclease pancreatic (Bos taurus, UniProt P61823); experiment: Competitive inhibition of bovine pancreatic RNase A using 2',3'-cCMP as substrate by Lineweaver-Burk plot analysis
T2 sequence (P61823 whole entry): T1 sequence (whole entry)

Ribonuclease pancreatic [3] = biological target: T2, Ribonuclease pancreatic; experiment: Inhibition of bovine pancreatic RNase A using 2',3'-cCMP as substrate by Lineweaver-Burk plot analysis
Ribonuclease pancreatic [4] = biological target: T2, Ribonuclease pancreatic; experiment: Inhibition of bovine pancreatic RNase A assessed as reduction in CpG cleavage by spectrophotometric analysis
Ribonuclease pancreatic [5] = biological target: T2, Ribonuclease pancreatic; experiment: Non-competitive inhibition of bovine pancreatic RNase A using 2',3'-cCMP as substrate by Lineweaver-Burk plot analysis

SMILES	inhibition [1]	Ki (Ribonuclease pancreatic [2]) [µM]	further results
OCc1cn(-c2cccc(-n3cc(CO)nn3)c2)nn1	Active	79	–
Cc1cn([C@H]2C[C@H](NC(=O)[C@@H](CC(=O)O)NC(=O)[C@H]3O[C@@H](n4cnc5c(N)ncnc54)[C@H](O)[C@@H]3O)[C@@H](CO)O2)c(=O)[nH]c1=O	–	–	Ki (Ribonuclease pancreatic [3]): 32 µM
Cc1cn([C@H]2C[C@H](NC(=O)[C@@H](CC(=O)O)NC(=O)[C@H]3O[C@@H](n4ccc(=O)[nH]c4=O)[C@H](O)[C@@H]3O)[C@@H](CO)O2)c(=O)[nH]c1=O	–	–	Ki (Ribonuclease pancreatic [3]): 66.7 µM
O=C(O)c1cc(-n2cc(CS(=O)(=O)O)nn2)cc(-n2cc(CS(=O)(=O)O)nn2)c1	Active	12	–
O=C(O)c1cn(-c2cccc(-n3cc(C(=O)O)nn3)c2)nn1	Active	60	–
O=C(Nc1ccc(Cc2ccc(NC(=O)c3cccc([N+](=O)[O-])c3)c(C(=O)O)c2)cc1C(=O)O)c1cccc([N+](=O)[O-])c1	–	–	Ki (Ribonuclease pancreatic [4]): 21 µM
O=S(=O)(O)CCn1cc(COC[C@@H]2O[C@H](Cn3cc(CS(=O)(=O)O)nn3)[C@@H](O)[C@H]2O)nn1	–	–	Ki (Ribonuclease pancreatic [3]): 29 µM
O=C(O)c1cc(-n2cc(C(=O)O)nn2)cc(-n2cc(C(=O)O)nn2)c1	Active	28	–

More lines, main results first:

inhibition [1]	Ki (Ribonuclease pancreatic [2]) [µM]	SMILES	further results
Active	44	O=C(O)c1cc(-n2cc(CO)nn2)cc(-n2cc(CO)nn2)c1	–
Active	32	O=S(=O)(O)Cc1cn(-c2cccc(-n3cc(CS(=O)(=O)O)nn3)c2)nn1	–
Active	272	O=C(O)c1cc(C(=O)N2CCC(C(=O)O)CC2)cc(C(=O)N2CCC(C(=O)O)CC2)c1	–
Active	–	O=C(O)C1CCN(C(=O)c2cccc(C(=O)N3CCC(C(=O)O)CC3)c2)CC1	Ki (Ribonuclease pancreatic [5]): 617 µM
